Results taken from patent US20150258101A1 (Proximagen Limited, priority 2014, published 2015).
Counter-ions that a name gives are not always drawn.

Target: T1, purified recombinantly expressed human SSAO (Homo sapiens, UniProt Q16853)
T1 construct: made in house
T1 sequence (Q16853 1-763): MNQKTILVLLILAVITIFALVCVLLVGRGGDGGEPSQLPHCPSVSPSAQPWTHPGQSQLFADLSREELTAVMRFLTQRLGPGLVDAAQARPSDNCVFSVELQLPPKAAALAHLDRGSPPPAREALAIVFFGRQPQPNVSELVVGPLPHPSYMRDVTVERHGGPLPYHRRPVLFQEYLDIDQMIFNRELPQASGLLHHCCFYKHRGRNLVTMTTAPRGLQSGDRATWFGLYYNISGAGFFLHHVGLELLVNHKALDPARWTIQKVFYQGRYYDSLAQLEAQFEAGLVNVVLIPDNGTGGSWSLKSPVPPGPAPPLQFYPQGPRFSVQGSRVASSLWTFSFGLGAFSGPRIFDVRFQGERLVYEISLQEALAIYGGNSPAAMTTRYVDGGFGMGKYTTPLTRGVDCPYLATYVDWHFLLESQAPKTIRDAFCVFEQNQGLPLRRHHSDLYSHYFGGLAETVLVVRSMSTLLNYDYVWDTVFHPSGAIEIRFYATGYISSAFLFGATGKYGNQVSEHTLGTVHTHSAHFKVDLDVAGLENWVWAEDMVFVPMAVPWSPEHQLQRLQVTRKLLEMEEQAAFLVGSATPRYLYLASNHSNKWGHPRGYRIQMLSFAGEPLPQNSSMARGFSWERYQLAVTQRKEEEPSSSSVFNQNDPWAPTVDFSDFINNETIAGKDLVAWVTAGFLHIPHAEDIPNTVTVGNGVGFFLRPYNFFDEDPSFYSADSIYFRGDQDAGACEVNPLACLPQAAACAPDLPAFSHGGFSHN
Experiment: SSAO enzyme inhibition assay (benzylamine substrate; hydrogen peroxide/HRP-coupled or 14C aldehyde detection)
Assay type: biochemical
Settings: SSAO inhibitory activity, RT
Description: All primary assays were performed at RT. with purified recombinantly expressed human SSAO. Enzyme was prepared essentially as described in Öhman et al. (Protein Expression and Purification 46 (2006) 321-331). In addition, secondary- and selectivity assays were performed using SSAO prepared from various tissues or purified rat recombinant SSAO. The enzyme activity was assayed with benzylamine as substrate by measuring either benzaldehyde production, using ^14C-labeled substrate, or by utilizing the production of hydrogen peroxide in a horseradish peroxidase (HRP) coupled reaction. Briefly, test compounds were dissolved in dimethyl sulfoxide (DMSO) to a concentration of 10 mM. Dose-response measurements were assayed by either creating 1:10 serial dilutions in DMSO to produce a 7 point curve or by making 1:3 serial dilutions in DMSO to produce 11 point curves.
In a horseradish peroxidase (HRP) coupled reaction, hydrogen peroxide oxidation of 10-acetyl-3,7-dihydroxyphenoxazine produced resorufin, which is a highly fluorescent compound (Zhout and Panchuk-Voloshina. Analytical Biochemistry 253 (1997) 169-174; Amplex® Red Hydrogen Peroxide/peroxidase Assay kit, Invitrogen A22188). Enzyme and compounds in 50 mM sodium phosphate, pH 7.4 were set to pre-incubate in flat-bottomed microtiter plates for approximately 15 min before initiating the reaction by addition of a mixture of HRP, benzylamine and Amplex reagent. Benzylamine concentration was fixed at a concentration corresponding to the Michaelis constant, determined using standard procedures. Fluorescence intensity was then measured at several time points during 1-2 h, exciting at 544 nm and reading the emission at 590 nm. For the human SSAO assay final concentrations of the reagents in the assay wells were: SSAO enzyme 1 ug/ml, benzylamine 100 uM, Amplex reagent 20 uM, HRP 0.1 U/mL and varying concentrations of test compound. The inhibition was measured as % decrease of the signal compared to a control without inhibitor (only diluted DMSO). The background signal from a sample containing no SSAO enzyme was subtracted from all data points. Data was fitted to a four parameter logistic model and IC50 values were calculated using the Graph Pad Prism 4 or XLfit 4 programs.
SSAO activity was assayed using 14C-labeled benzylamine and analysed by measuring radioactive benzaldehyde. In a white 96-well optiplate (Packard), 20 uL of diluted test compound was pre-incubated at room temperature with 20 uL SSAO enzyme for approximately 15 min with continuous agitation. All dilutions were made with PBS. The reaction was initiated by adding 20 uL of the benzylamine substrate solution containing [7-14C] Benzylamine hydrochloride (CFA589, GE Healthcare). The plate was incubated for 1 h as above after which the reaction was stopped by acidification (10 uL 1M aq HCl). Then 90 uL Micro Scint-E solution (Perkin-Elmer) was added to each well and the plate was continuously mixed for 15 min. Phase separation occurred instantly and activity was read in a Topcount scintillation counter (Perkin-Elmer). In the final reaction well, the human recombinant SSAO concentration was 10 ug/ml. In order to optimize sensitivity, the substrate concentration was decreased as compared to the HRP coupled assay in order to get a higher fraction of radioactive product. In the human SSAO assay, benzylamine concentration was 40 uM (0.2 uCi/mL). Data was analysed as above.

Row | Structure (SMILES) | IC50
1 | Cc1ccc(-n2c(-c3cnc(N4CCOCC4)nc3)cc3ccncc32)cc1 [Example 130, 4-{5-[1-(4-Methylphenyl)-1H-pyrrolo[2,3-c]pyridin-2-yl]pyrimidin-2-yl}morpholine] | 50 to 200 nM
2 | CCOCCNc1ncc(-c2nc3ccncc3n2-c2ccc(F)cc2)cn1 [Example 42, N-(2-Ethoxyethyl)-5-[3-(4-fluorophenyl)-3H-imidazo [4,5-c]pyridin-2-yl]pyrimidin-2-amine] | 50 to 200 nM
3 | O=c1cc(-c2cc3ccncc3n2-c2ccc(Cl)cc2)cn[nH]1 [Example 146, 5-[1-(4-Chlorophenyl)-1H-pyrrolo[2,3-c]pyridin-2-yl]-2,3-dihydropyridazin-3-one] | 50 to 200 nM
4 | Brc1ccc(-n2c(-c3cnc(N4CCOCC4)nc3)cc3ccncc32)cc1 [Example 133, 4-{5-[1-(4-Bromophenyl)-1H-pyrrolo[2,3-c]pyridin-2-yl]pyrimidin-2-yl}morpholine] | < 50 nM
5 | Cc1ccc(-n2c(-c3cnc(N4C[C@@H](C)O[C@@H](C)C4)nc3)nc3ccncc32)nc1 [Example 36, (2R,6S)-2,6-Dimethyl-4-{5-[3-(5-methylpyridin-2-yl)-3H-imidazo[4,5-c]pyridin-2-yl]pyrimidin-2-yl}morpholine] | 50 to 200 nM
6 | Cc1cc(NCC2CC2)ncc1-c1nc2ccncc2n1-c1ccc(F)cc1 [Example 101, N-(Cyclopropylmethyl)-5-[3-(4-fluorophenyl)-3H-imidazo[4,5-c]pyridin-2-yl]-4-methylpyridin-2-amine] | 50 to 200 nM
7 | Fc1ccc(-n2c(-c3cnc(N4CCOCC4)nc3)nc3ccncc32)c(Cl)c1 [Example 56, 4-{5-[3-(2-Chloro-4-fluorophenyl)-3H-imidazo[4,5-c]pyridin-2-yl]pyrimidin-2-yl}morpholine] | 200 to 1200 nM
8 | CN1CCN(Cc2cccc(-c3nc4ccncc4n3-c3ccc(Cl)cc3)c2)CC1 [Example 45, 1-({3-[3-(4-Chlorophenyl)-3H-imidazo[4,5-c]pyridin-2-yl]phenyl}methyl)-4-methylpiperazine; formic acid] | 200 to 1200 nM
9 | Clc1ccc(-n2c(-c3cnc(NC4CCOCC4)cn3)nc3ccncc32)cc1 [Example 7, 5-[3-(4-Chlorophenyl)-3H-imidazo[4,5-c]pyridin-2-yl]-N-(oxan-4-yl)pyrazin-2-amine] | 50 to 200 nM
10 | Fc1ccc(-n2c(-c3ccc(N4CCOCC4)nc3)nc3ccncc32)c(Cl)c1 [Example 61, 4-{5-[3-(2-Chloro-4-fluorophenyl)-3H-imidazo[4,5-c]pyridin-2-yl]pyridin-2-yl}morpholine] | < 50 nM
11 | Clc1ccc(-n2c(-c3cnc(NCC4CC4)nc3)cc3ccncc32)cc1 [Example 149, 5-[1-(4-Chlorophenyl)-1H-pyrrolo[2,3-c]pyridin-2-yl]-N-(cyclopropylmethyl)pyrimidin-2-amine] | < 50 nM
12 | Fc1ccc(-n2c(-c3cnc(N4CCCOCC4)nc3)nc3ccncc32)cc1 [Example 25, 4-{5-[3-(4-Fluorophenyl)-3H-imidazo[4,5-c]pyridin-2-yl]pyrimidin-2-yl}-1,4-oxazepane] | < 50 nM
13 | Clc1ccc(-n2c(-c3cnccn3)cc3ccncc32)cc1 [Example 124, 2-[1-(4-Chlorophenyl)-1H-pyrrolo[2,3-c]pyridin-2-yl]pyrazine] | < 50 nM
14 | Fc1cncc(-c2cc3ccncc3n2-c2ccc(Cl)cc2)c1 [Example 148, 3-[1-(4-Chlorophenyl)-1H-pyrrolo[2,3-c]pyridin-2-yl]-5-fluoropyridine] | < 50 nM
15 | CN(C)c1cc(-c2nc3ccncc3n2-c2ccc(F)cc2)ccn1 [Example 109, 4-[3-(4-Fluorophenyl)-3H-imidazo[4,5-c]pyridin-2-yl]-N,N-dimethylpyridin-2-amine] | 200 to 1200 nM
16 | CS(=O)(=O)Nc1ccc(-c2nc3ccncc3n2-c2ccc(Cl)cc2)cn1 [Example 16, N-{5-[3-(4-Chlorophenyl)-3H-imidazo[4,5-c]pyridin-2-yl]pyridin-2-yl} methanesulfonamide] | 200 to 1200 nM
17 | Fc1ccc(-n2c(-c3cnc(NC4CC4)nc3)nc3ccncc32)cc1 [Example 10, N-Cyclopropyl-5-[3-(4-fluorophenyl)-3H-imidazo [4,5-c]pyridin-2-yl]pyrimidin-2-amine] | 50 to 200 nM
18 | FC(F)(F)c1ccc(-n2c(-c3ccc(N4CCOCC4)nc3)nc3ccncc32)cc1 [Example 66, 4-(5-{3-[4-(Trifluoromethyl)phenyl]-3H-imidazo[4,5-c]pyridin-2-yl}pyridin-2-yl)morpholine] | 50 to 200 nM
19 | Fc1ccccc1-n1c(-c2ccc(N3CCOCC3)nc2)nc2ccncc21 [Example 68, 4-{5-[3-(2-Fluorophenyl)-3H-imidazo[4,5-c]pyridin-2-yl]pyridin-2-yl}morpholine] | < 50 nM
20 | CC(=O)N1CCCN(c2ccc(-c3nc4ccncc4n3-c3ccc(F)cc3)cn2)CC1 [Example 87, 1-(4-{5-[3-(4-Fluorophenyl)-3H-imidazo[4,5-c]pyridin-2-yl]pyridin-2-yl}-1,4-diazepan-1-yl)ethan-1-one; bis(trifluoroacetic acid)] | < 50 nM
21 | Cc1cnccc1-c1cc2ccncc2n1-c1ccc(Cl)cc1 [Example 154, 4-[1-(4-Chlorophenyl)-1H-pyrrolo[2,3-c]pyridin-2-yl]-3-methylpyridine] | < 50 nM
22 | Fc1ccc(-n2c(-c3cnc(NCC4CC4)nc3)nc3ccncc32)cc1 [Example 9, N-(Cyclopropylmethyl)-5-[3-(4-fluorophenyl)-3H-imidazo [4,5-c]pyridin-2-yl]pyrimidin-2-amine] | < 50 nM
23 | O=c1ccc(-c2nc3ccncc3n2-c2ccc(Cl)cc2F)c[nH]1 [Example 35, 5-[3-(4-Chloro-2-fluorophenyl)-3H-imidazo[4,5-c]pyridin-2-yl]-1,2-dihydropyridin-2-one] | 200 to 1200 nM
24 | CC(C)OCCNc1ncc(-c2nc3ccncc3n2-c2ccc(F)cc2)cn1 [Example 38, 5-[3-(4-Fluorophenyl)-3H-imidazo[4,5-c]pyridin-2-yl]-N-[2-(propan-2-yloxy)ethyl] pyrimidin-2-amine] | 50 to 200 nM
25 | Clc1ccc(-n2c(-c3csc(N4CCNCC4)n3)nc3ccncc32)cc1 [Example 17, 1-{4-[3-(4-Chlorophenyl)-3H-imidazo[4,5-c]pyridin-2-yl]-1,3-thiazol-2-yl}piperazine dihydrochloride] | 200 to 1200 nM
26 | CN(C)c1ncc(-c2nc3ccncc3n2-c2ccc(Cl)cc2F)cn1 [Example 84, 5-[3-(4-Chloro-2-fluorophenyl)-3H-imidazo[4,5-c]pyridin-2-yl]-N,N-dimethylpyrimidin-2-amine] | < 50 nM
27 | Cc1nc(N2CCOCC2)ccc1-c1nc2ccncc2n1-c1ccc(F)cc1 [Example 108, 4-{5-[3-(4-Fluorophenyl)-3H-imidazo[4,5-c]pyridin-2-yl]-6-methylpyridin-2-yl}morpholine] | 200 to 1200 nM
28 | NC1CCN(c2ccc(-c3nc4ccncc4n3-c3ccc(Cl)cc3)cn2)CC1 [Example 8, 1-{5-[3-(4-Chlorophenyl)-3H-imidazo[4,5-c]pyridin-2-yl]pyridin-2-yl}piperidin-4-amine] | < 50 nM
